Test results published in patent US8470856B2, “Anthranilamide compounds, process for their production and pesticides containing them” (Ishihara Sangyo Kaisha, Ltd., priority 2004, dated 2013).
Several values for one entry are separate records, joined by “and”; a condition that tells them apart may be missing. Equal values may be shown once.

Columns and labels:
Assay type in all cases: in vivo
[1] = test system: Haemaphysalis longicornis; experiment: Controlling effects against Haemaphysalis longicornis, knockdown of larval ticks in treated petri dish; settings: 1 ml acetone solution 10 μg/ml on petri dish, 25° C., operation repeated twice (two values)
Experimental: Test on Controlling Effects Against Haemaphysalis longicornis
On an inner surface of a petri dish having diameter of 9 cm, 1 ml of an acetone solution of a sample compound (concentration: 10 μg/ml) was dropwise applied by a micropipette. On the other hand, as a control section, 1 ml of acetone was dropwise applied in the same manner. The inner surface of the petri dish was dried, and then about 100 larval ticks were put, and the petri dish was covered with a polyethylene sheet and sealed with an elastic band. Thereafter, except for the observation time, the petri dish was left to stand at a constant temperature of 25° C. under a relative humidity of 100% and under a constantly dark condition. The observation was carried out every time after putting the larval ticks in the petri dish (after 5 minutes, 10 minutes, 15 minutes, 20 minutes, 30 minutes, 45 minutes, 1 hour, 2 hours, 4 hours, 6 hours and 24 hours). The number of knockdown ticks after the contact with the insecticidal compound was recorded. The foregoing operation was repeated twice.
The knockdown rate at each observation time was corrected by the following abbott correction formula. Then, a probit-time linear line was drawn, and the median knockdown time (KT50 value) was obtained. With respect to the KT50 values of the respective sample compounds, they were 9 minutes and 8 minutes with the above-mentioned compound No. 3, and 7.5 minutes and 6 minutes with the above-mentioned compound No. 9, while they were 80 minutes and 40 minutes with the following comparative compound A and 120 minutes and 80 minutes with the following comparative compound B. Corrected knockdown rate(%)=[(non-knockdown rate in control section−non-knockdown rate in treated section)/non-knockdown rate in control section]×100

[2] = test system: Common Cutworm (Spodoptera litura); experiment: Controlling effects against common cutworm, cabbage leaf dip; settings: foliar, 120 h
Source text: Test on Controlling Effects Against Common Cutworm (Spodoptera litura)
A leaf segment of cabbage was dipped for about 10 seconds in an insecticidal solution prepared to bring the concentration of the compound of the present invention to 50 ppm or 3.1 ppm and dried in air. A wet filter paper was laid in a petri dish having a diameter of 9 cm, and the dried leaf segment of cabbage was placed thereon. Ten second-third instar larvae common cutworm were released therein and after putting a cover, left in a constant temperature chamber at 25° C. with lightening. Dead larvae were counted 5 days after the release, and the mortality was calculated by the following equation. Here, moribund insects were counted as dead insects. […] Mortality(%)=(number of dead insects/number of released insects)×100

[3] = test system: Cat Flea (Ctenocephalides felis); experiment: Controlling effects against cat flea, dry film in glass tube; settings: 0.5 ml of 5.3 ppm acetone solution as dry film, adult fleas, 48 hours after exposure
Experimental: Test on Controlling Effects Against Cat Flea (Ctenocephalides felis)
0.5 ml of an acetone solution of the compound of the present invention prepared to be 5.3 ppm was dropped in a glass tube having a flat bottom (inner diameter: 2.6 cm, bottom area: 5.3 cm^2, height 12 cm). The acetone was evaporated at room temperature to have a dry film containing the compound of the present invention formed on the bottom surface. Ten adults of cat flea (not-yet-blood-sucked adults within five days after adult emergence) were put therein and exposed to the compound of the present invention. The test was carried out continuously three times.
Dead cat flea were counted 48 hours after the exposure and the mortality was obtained in the same manner as in the above Test Example 1.

SMILES | median knockdown time (KT50 value) [1] | other results
Cc1cc(Cl)cc(C(=O)NC(C)C)c1NC(=O)c1cc(C(F)(F)F)nn1-c1ncccc1Cl [comparative compound A, reference compound] | 80 min and 40 min | –
Cc1cc(Cl)cc(C(=O)NC(C)C)c1NC(=O)c1cc(Br)nn1-c1ncccc1Cl [comparative compound B, reference compound] | 120 min and 80 min | –
Cc1cccc(C(=O)NCC2CC2)c1NC(=O)c1cc(C(F)(F)F)nn1-c1ncccc1Cl [compound No. 1, N-[6-[[(cyclopropylmethyl)amino]carbonyl]-2-methylphenyl]-1-(3-chloro-2-pyridyl)-3-(trifluoromethyl)-1H-pyrazol-5-carboxamide] | – | mortality at 3.1 ppm [2]: ≥ 90%
Cc1cc(Cl)cc(C(=O)NC(C)C2CC2)c1NC(=O)c1cc(C(F)(F)F)nn1-c1ncccc1Cl (stereo not drawn) [compound No. 3, N-[4-chloro-2-methyl-6-[[α-methyl-(cyclopropylmethyl)amino]carbonyl]-phenyl]-3-(trifluoromethyl)-1-(3-chloro-2-pyridyl)-1H-pyrazol-5-carboxamide] | 9 min and 8 min | –
Cc1cc(Cl)cc(C(=O)NC(C)C2CC2)c1NC(=O)c1cc(Br)nn1-c1ncccc1Cl (stereo not drawn) [compound No. 9, N-[4-chloro-2-methyl-6-[[α-methyl-(cyclopropylmethyl)amino]carbonyl]-phenyl]-3-bromo-1-(3-chloro-2-pyridyl)-1H-pyrazol-5-carboxamide] | 7.5 min and 6 min | –
CC(NC(=O)c1cc(Cl)cc(Br)c1NC(=O)c1cc(Br)nn1-c1ncccc1Cl)C1CC1 (stereo not drawn) [compound No. 16, N-[2-bromo-4-chloro-6-[[α-methyl-(cyclopropylmethyl)amino]carbonyl]-phenyl]-3-bromo-1-(3-chloro-2-pyridyl)-1H-pyrazol-5-carboxamide] | – | mortality [3]: at least 90%
